Source: ChEMBL document CHEMBL1201862, “PubChem BioAssay data set” (2004)
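Method: 48-hour compound exposure of cells in 96-well plates, five concentrations, linear interpolation of endpoints. GI50 = concentration required for 50% inhibition of growth.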 Active and inactive are the calls of the source. Cut-off read from the data, not from the text of the source: active = GI50 up to about 1.1 µM and inactive = higher.

Key:
Experiment in all cases: NCI tumour cell line growth inhibition, 48 h
A549 = system: A549
HCT-116 = system: HCT-116
SK-MEL-28 = system: SK-MEL-28
EKVX = system: EKVX
SNB-19 = system: SNB-19
RXF 393 = system: RXF 393
SR = system: SR
CCRF-CEM = system: CCRF-CEM
OVCAR-4 = system: OVCAR-4
SF-295 = system: SF-295
SN12C = system: SN12C
COLO 205 = system: COLO 205
SK-OV-3 = system: SK-OV-3
KM-20L2 = system: KM-20L2
HOP-62 = system: HOP-62
HL-60 = system: HL-60
NCI-H460 = system: NCI-H460
ACHN = system: ACHN
A498 = system: A498
OVCAR-3 = system: OVCAR-3
OVCAR-5 = system: OVCAR-5
UO-31 = system: UO-31
MOLT-4 = system: MOLT-4
HCC 2998 = system: HCC 2998
NCI-H23 = system: NCI-H23
RPMI-8226 = system: RPMI-8226
HT-29 = system: HT-29
OVCAR-8 = system: OVCAR-8
KM12 = system: KM12
786-0 = system: 786-0
SK-MEL-2 = system: SK-MEL-2
SF-539 = system: SF-539
SW-620 = system: SW-620
UACC-257 = system: UACC-257
IGROV-1 = system: IGROV-1
K562 = system: K562
CAKI-1 = system: CAKI-1
M14 = system: M14
DMS-114 = system: DMS-114
TK-10 = system: TK-10
Malme-3M = system: Malme-3M
HOP-92 = system: HOP-92
SF-268 = system: SF-268
NCI-H522 = system: NCI-H522
UACC-62 = system: UACC-62
DLD-1 = system: DLD-1
SK-MEL-5 = system: SK-MEL-5
MDA-MB-231 = system: MDA-MB-231
NCI-H226 = system: NCI-H226
HCT-15 = system: HCT-15
LOX IMVI = system: LOX IMVI
PC-3 = system: PC-3
T47D = system: T47D
MCF7 = system: MCF7
NCI/ADR-RES = system: NCI/ADR-RES
SNB-75 = system: SNB-75
Hs-578T = system: Hs-578T
MDA-MB-435 = system: MDA-MB-435
U-251 = system: U-251
BT-549 = system: BT-549
DU-145 = system: DU-145
MDA-N = system: MDA-N

## CC(C)c1cccc(C(C)C)c1NC(=O)C(=O)CC(=O)CC(c1ccccc1)c1c(O)oc2ccccc2c1=O (stereo not given)
A549
  GI50: > 100 µM (inactive)
HCT-116
  GI50: > 100 µM (inactive)
SK-MEL-28
  GI50: > 100 µM (inactive)
EKVX
  GI50: > 100 µM (inactive)
SNB-19
  GI50: > 100 µM (inactive)
RXF 393
  GI50: > 100 µM (inactive)
SR
  GI50: > 100 µM (inactive)
CCRF-CEM
  GI50: > 100 µM (inactive)
OVCAR-4
  GI50: > 100 µM (inactive)
SF-295
  GI50: > 100 µM (inactive)
SN12C
  GI50: > 100 µM (inactive)
COLO 205
  GI50: > 100 µM (inactive)
SK-OV-3
  GI50: > 100 µM (inactive)
KM-20L2
  GI50: > 100 µM (inactive)
HOP-62
  GI50: > 100 µM (inactive)
HL-60
  GI50: > 100 µM (inactive)
NCI-H460
  GI50: > 100 µM (inactive)
ACHN
  GI50: > 100 µM (inactive)
A498
  GI50: > 100 µM (inactive)
OVCAR-3
  GI50: > 100 µM (inactive)
OVCAR-5
  GI50: > 100 µM (inactive)
UO-31
  GI50: > 100 µM (inactive)
MOLT-4
  GI50: > 100 µM (inactive)
HCC 2998
  GI50: > 100 µM (inactive)
NCI-H23
  GI50: > 100 µM (inactive)
RPMI-8226
  GI50: > 100 µM (inactive)
HT-29
  GI50: > 100 µM (inactive)
OVCAR-8
  GI50: > 100 µM (inactive)
KM12
  GI50: > 100 µM (inactive)
786-0
  GI50: > 100 µM (inactive)
SK-MEL-2
  GI50: > 100 µM (inactive)
SF-539
  GI50: > 100 µM (inactive)
SW-620
  GI50: > 100 µM (inactive)
UACC-257
  GI50: > 100 µM (inactive)
IGROV-1
  GI50: > 100 µM (inactive)
K562
  GI50: > 100 µM (inactive)
CAKI-1
  GI50: > 100 µM (inactive)
M14
  GI50: > 100 µM (inactive)
DMS-114
  GI50: > 100 µM (inactive)
TK-10
  GI50: > 100 µM (inactive)
Malme-3M
  GI50: > 100 µM (inactive)
HOP-92
  GI50: > 100 µM (inactive)
SF-268
  GI50: > 100 µM (inactive)
NCI-H522
  GI50: > 100 µM (inactive)
UACC-62
  GI50: > 100 µM (inactive)
DLD-1
  GI50: > 100 µM (inactive)
SK-MEL-5
  GI50: > 100 µM (inactive)

## CCC(C)NC(=S)N/N=C(\C)c1nc2cccnc2[nH]1 (stereo not given)
A549
  GI50: 14.9 µM (inactive)
HCT-116
  GI50: 6.05 µM (inactive)
SK-MEL-28
  GI50: 33.9 µM (inactive)
EKVX
  GI50: 6.73 µM (inactive)
SNB-19
  GI50: 32.4 µM (inactive)
MDA-MB-231
  GI50: 6.95 µM (inactive)
NCI-H226
  GI50: 4.42 µM (inactive)
HCT-15
  GI50: 5.64 µM
RXF 393
  GI50: 15.6 µM (inactive)
SR
  GI50: 3.85 µM (inactive)
LOX IMVI
  GI50: 10.9 µM (inactive)
CCRF-CEM
  GI50: 3.09 µM (inactive)
OVCAR-4
  GI50: 4.91 µM (inactive)
SF-295
  GI50: 5.53 µM (inactive)
PC-3
  GI50: 8.85 µM (inactive)
SN12C
  GI50: 21.6 µM (inactive)
COLO 205
  GI50: 3.54 µM (inactive)
SK-OV-3
  GI50: 10.3 µM (inactive)
T47D
  GI50: 2.1 µM (inactive)
MCF7
  GI50: 2.1 µM (inactive)
HOP-62
  GI50: 7.78 µM (inactive)
HL-60
  GI50: 4.92 µM (inactive)
NCI-H460
  GI50: 10 µM (inactive)
ACHN
  GI50: 9.57 µM (inactive)
A498
  GI50: 57.3 µM (inactive)
NCI/ADR-RES
  GI50: 16.7 µM (inactive)
OVCAR-3
  GI50: 3.25 µM (inactive)
OVCAR-5
  GI50: 13.4 µM (inactive)
UO-31
  GI50: 2.32 µM (inactive)
MOLT-4
  GI50: 3.6 µM (inactive)
HCC 2998
  GI50: 13.4 µM (inactive)
NCI-H23
  GI50: 41.6 µM (inactive)
RPMI-8226
  GI50: 21.6 µM (inactive)
HT-29
  GI50: 4.49 µM (inactive)
OVCAR-8
  GI50: 4 µM (inactive)
SNB-75
  GI50: 48.5 µM (inactive)
KM12
  GI50: 15.9 µM (inactive)
786-0
  GI50: 13.6 µM (inactive)
Hs-578T
  GI50: 19.3 µM (inactive)
SK-MEL-2
  GI50: 5.92 µM (inactive)
SF-539
  GI50: 21.7 µM (inactive)
SW-620
  GI50: 4.52 µM (inactive)
UACC-257
  GI50: 5.79 µM (inactive)
MDA-MB-435
  GI50: 31.3 µM (inactive)
U-251
  GI50: 9.14 µM (inactive)
BT-549
  GI50: 13.5 µM (inactive)
IGROV-1
  GI50: 12.2 µM (inactive)
K562
  GI50: 2.24 µM (inactive)
CAKI-1
  GI50: 4.07 µM (inactive)
M14
  GI50: 12.7 µM (inactive)
DU-145
  GI50: 16.9 µM (inactive)
TK-10
  GI50: 12.3 µM (inactive)
Malme-3M
  GI50: 6.73 µM (inactive)
HOP-92
  GI50: 7.18 µM (inactive)
SF-268
  GI50: 8.36 µM (inactive)
NCI-H522
  GI50: 7.87 µM (inactive)
UACC-62
  GI50: 6.11 µM (inactive)
MDA-N
  GI50: 47.4 µM (inactive)
SK-MEL-5
  GI50: 4.72 µM (inactive)

## CCC(C)C(N)C(=O)N/N=C\c1c2c(nc3ccccc13)-c1cc3c(c(=O)n1C2)COC(=O)[C@]3(O)CC (stereo not given in full)
A549
  GI50: 0.173 µM (active)
HCT-116
  GI50: 0.0536 µM (active)
SK-MEL-28
  GI50: 0.259 µM (active)
EKVX
  GI50: 1.89 µM (inactive)
SNB-19
  GI50: < 0.01 µM (active)
MDA-MB-231
  GI50: 2.37 µM (inactive)
NCI-H226
  GI50: 0.0598 µM (active)
HCT-15
  GI50: 0.356 µM
RXF 393
  GI50: < 0.0284 µM (active)
SR
  GI50: < 0.01 µM (active)
LOX IMVI
  GI50: 0.0132 µM (active)
CCRF-CEM
  GI50: < 0.01 µM (active)
OVCAR-4
  GI50: 1.43 µM (inactive)
SF-295
  GI50: 0.043 µM (active)
PC-3
  GI50: 0.387 µM (active)
SN12C
  GI50: 0.0155 µM (active)
COLO 205
  GI50: 2.95 µM (inactive)
SK-OV-3
  GI50: 0.0528 µM (active)
T47D
  GI50: < 0.01 µM (active)
MCF7
  GI50: < 0.01 µM (active)
HOP-62
  GI50: 0.0113 µM (active)
HL-60
  GI50: 0.0164 µM (active)
NCI-H460
  GI50: < 0.0134 µM (active)
ACHN
  GI50: < 0.0117 µM (active)
A498
  GI50: 0.205 µM (active)
NCI/ADR-RES
  GI50: 0.232 µM (active)
OVCAR-3
  GI50: 0.879 µM (active)
OVCAR-5
  GI50: 1.52 µM (inactive)
UO-31
  GI50: 0.12 µM (active)
MOLT-4
  GI50: < 0.01 µM (active)
HCC 2998
  GI50: 0.36 µM (active)
NCI-H23
  GI50: 0.0112 µM (active)
RPMI-8226
  GI50: 0.142 µM (active)
HT-29
  GI50: 0.69 µM (active)
OVCAR-8
  GI50: 0.0453 µM (active)
SNB-75
  GI50: 0.0256 µM (active)
KM12
  GI50: 0.925 µM (active)
786-0
  GI50: 0.0361 µM (active)
Hs-578T
  GI50: 1.82 µM (inactive)
SK-MEL-2
  GI50: 1.08 µM (active)
SF-539
  GI50: < 0.01 µM (active)
SW-620
  GI50: 0.127 µM (active)
UACC-257
  GI50: 0.467 µM (active)
MDA-MB-435
  GI50: 0.468 µM (active)
U-251
  GI50: < 0.01 µM (active)
BT-549
  GI50: 0.174 µM (active)
IGROV-1
  GI50: 0.832 µM (active)
K562
  GI50: 0.063 µM (active)
CAKI-1
  GI50: 0.0397 µM (active)
M14
  GI50: 0.039 µM (active)
DU-145
  GI50: 0.0158 µM (active)
TK-10
  GI50: 4.02 µM (inactive)
Malme-3M
  GI50: 0.438 µM (active)
HOP-92
  GI50: 0.0803 µM (active)
SF-268
  GI50: < 0.01 µM (active)
NCI-H522
  GI50: < 0.048 µM (active)
UACC-62
  GI50: < 0.01 µM (active)
MDA-N
  GI50: 0.46 µM (active)
SK-MEL-5
  GI50: 0.0594 µM (active)
